Converted amounts (≈) assume the structure as drawn.
How the values were obtained:
Bacillus subtilis = experiment: Minimum inhibitory concentration against gram positive Bacillus subtilis (MTCC 441) using broth dilution method; format: functional
Bacillus sp. = experiment: Minimum inhibitory concentration against gram positive Bacillus sphaericus (MTCC 11) using broth dilution method; format: functional, Lysinibacillus sphaericus; conditions: Bacillus sp. (in: firmicutes)
Staphylococcus aureus = experiment: Minimum inhibitory concentration against gram positive Staphylococcus aureus (MTCC 96) using broth dilution method; format: functional
Klebsiella aerogenes = experiment: Minimum inhibitory concentration against gram negative Klebsiella aerogenes (MTCC 39) using broth dilution method; format: functional
[1] = Minimum inhibitory concentration against gram negative Chromobacterium violaceum (MTCC 2656) using broth dilution method; format: functional

Row | Structure (SMILES) | MIC (Bacillus subtilis) | MIC (Bacillus sp.) | MIC (Staphylococcus aureus) | MIC (Klebsiella aerogenes) | MIC [1]
1 | COc1cc2oc(-c3ccccc3)cc(=O)c2c(O)c1OC [MOSLOFLAVONE] | 25 µg/mL (≈ 83.8 µM) | 12.5 µg/mL (≈ 41.9 µM) | 50 µg/mL (≈ 168 µM) | 50 µg/mL (≈ 168 µM) | 25 µg/mL (≈ 83.8 µM)
2 | CN[C@@H]1[C@H](O[C@H]2[C@H](O[C@H]3[C@H](O)[C@@H](O)[C@H](N=C(N)N)[C@@H](O)[C@@H]3N=C(N)N)O[C@@H](C)[C@]2(O)C=O)O[C@@H](CO)[C@H](O)[C@H]1O (stereo in doubt) [STREPTOMYCIN] | 6.25 µg/mL (≈ 10.7 µM) | 12.5 µg/mL (≈ 21.5 µM) | 6.25 µg/mL (≈ 10.7 µM) | 1.56 µg/mL (≈ 2.69 µM) | 3.12 µg/mL (≈ 5.37 µM)
3 | CCCCCCCCCCCC(=O)Oc1cc2oc(-c3ccccc3)cc(=O)c2c(O)c1OC | 25 µg/mL (≈ 53.6 µM) | 12.5 µg/mL (≈ 26.8 µM) | 12.5 µg/mL (≈ 26.8 µM) | 12.5 µg/mL (≈ 26.8 µM) | 25 µg/mL (≈ 53.6 µM)
4 | COc1c(OC(C)=O)cc2oc(-c3ccccc3)cc(=O)c2c1O | 12.5 µg/mL (≈ 38.3 µM) | 25 µg/mL (≈ 76.6 µM) | 50 µg/mL (≈ 153 µM) | 50 µg/mL (≈ 153 µM) | 25 µg/mL (≈ 76.6 µM)
5 | COc1c(OC(=O)c2ccccc2Cl)cc2oc(-c3ccccc3)cc(=O)c2c1O | 25 µg/mL (≈ 59.1 µM) | 25 µg/mL (≈ 59.1 µM) | 12.5 µg/mL (≈ 29.6 µM) | 25 µg/mL (≈ 59.1 µM) | 25 µg/mL (≈ 59.1 µM)
6 | COc1c(O)cc2oc(-c3ccccc3)cc(=O)c2c1O [OROXYLIN A] | 50 µg/mL (≈ 176 µM) | 25 µg/mL (≈ 87.9 µM) | 50 µg/mL (≈ 176 µM) | 50 µg/mL (≈ 176 µM) | 25 µg/mL (≈ 87.9 µM)
7 | COc1c(OC(=O)C/C=C/c2ccccc2)cc2oc(-c3ccccc3)cc(=O)c2c1O | 25 µg/mL (≈ 58.4 µM) | 12.5 µg/mL (≈ 29.2 µM) | 12.5 µg/mL (≈ 29.2 µM) | 12.5 µg/mL (≈ 29.2 µM) | 25 µg/mL (≈ 58.4 µM)
8 | COc1cc(C(=O)Oc2cc3oc(-c4ccccc4)cc(=O)c3c(O)c2OC)cc(OC)c1OC | 12.5 µg/mL (≈ 26.1 µM) | 25 µg/mL (≈ 52.3 µM) | 25 µg/mL (≈ 52.3 µM) | 12.5 µg/mL (≈ 26.1 µM) | 6.25 µg/mL (≈ 13.1 µM)
9 | CCOc1cc2oc(-c3ccccc3)cc(=O)c2c(O)c1OC | 25 µg/mL (≈ 80 µM) | 25 µg/mL (≈ 80 µM) | 50 µg/mL (≈ 160 µM) | 25 µg/mL (≈ 80 µM) | 25 µg/mL (≈ 80 µM)
10 | CC1(C)S[C@@H]2[C@H](NC(=O)COc3ccccc3)C(=O)N2[C@H]1C(=O)O [PENICILLIN V] | 1.56 µg/mL (≈ 4.46 µM) | 3.12 µg/mL (≈ 8.92 µM) | 1.56 µg/mL (≈ 4.46 µM) | 6.25 µg/mL (≈ 17.8 µM) | 12.5 µg/mL (≈ 35.7 µM)
11 | CCCCCCCCCCCCCC(=O)Oc1cc2oc(-c3ccccc3)cc(=O)c2c(O)c1OC | 25 µg/mL (≈ 50.5 µM) | 12.5 µg/mL (≈ 25.3 µM) | 50 µg/mL (≈ 101 µM) | 50 µg/mL (≈ 101 µM) | 25 µg/mL (≈ 50.5 µM)
12 | CCCCCCCCCCCCCCCC(=O)Oc1cc2oc(-c3ccccc3)cc(=O)c2c(O)c1OC | 25 µg/mL (≈ 47.8 µM) | 25 µg/mL (≈ 47.8 µM) | 25 µg/mL (≈ 47.8 µM) | 12.5 µg/mL (≈ 23.9 µM) | 25 µg/mL (≈ 47.8 µM)
13 | COc1c(OC(=O)c2ccccc2)cc2oc(-c3ccccc3)cc(=O)c2c1O | 12.5 µg/mL (≈ 32.2 µM) | 6.25 µg/mL (≈ 16.1 µM) | 25 µg/mL (≈ 64.4 µM) | 25 µg/mL (≈ 64.4 µM) | 12.5 µg/mL (≈ 32.2 µM)

More lines, in order of falling MIC (Bacillus subtilis), values ahead:

Row | MIC (Bacillus subtilis) | MIC (Bacillus sp.) | MIC (Staphylococcus aureus) | MIC (Klebsiella aerogenes) | MIC [1] | Structure (SMILES)
14 | 50 µg/mL (≈ 124 µM) | 25 µg/mL (≈ 62.1 µM) | 50 µg/mL (≈ 124 µM) | 25 µg/mL (≈ 62.1 µM) | 50 µg/mL (≈ 124 µM) | COc1c(OC(=O)c2ccc(C)cc2)cc2oc(-c3ccccc3)cc(=O)c2c1O
15 | 50 µg/mL (≈ 160 µM) | 25 µg/mL (≈ 80 µM) | 25 µg/mL (≈ 80 µM) | 50 µg/mL (≈ 160 µM) | 25 µg/mL (≈ 80 µM) | COc1cc2oc(-c3ccccc3)cc(=O)c2c(OC)c1OC [BAICALEIN TRIMETHYL ETHER]
16 | 25 µg/mL (≈ 65.4 µM) | 12.5 µg/mL (≈ 32.7 µM) | 25 µg/mL (≈ 65.4 µM) | 25 µg/mL (≈ 65.4 µM) | 25 µg/mL (≈ 65.4 µM) | CCCCCC(=O)Oc1cc2oc(-c3ccccc3)cc(=O)c2c(O)c1OC
17 | 25 µg/mL (≈ 70.6 µM) | 6.25 µg/mL (≈ 17.6 µM) | 25 µg/mL (≈ 70.6 µM) | 25 µg/mL (≈ 70.6 µM) | 6.25 µg/mL (≈ 17.6 µM) | CCCC(=O)Oc1cc2oc(-c3ccccc3)cc(=O)c2c(O)c1OC
18 | 25 µg/mL (≈ 73.4 µM) | 12.5 µg/mL (≈ 36.7 µM) | 25 µg/mL (≈ 73.4 µM) | 25 µg/mL (≈ 73.4 µM) | 25 µg/mL (≈ 73.4 µM) | CCOc1cc2oc(-c3ccccc3)cc(=O)c2c(OCC)c1OC
19 | 12.5 µg/mL (≈ 22.7 µM) | 12.5 µg/mL (≈ 22.7 µM) | 25 µg/mL (≈ 45.4 µM) | 25 µg/mL (≈ 45.4 µM) | 12.5 µg/mL (≈ 22.7 µM) | CCCCCCCCCCCCCCCCCC(=O)Oc1cc2oc(-c3ccccc3)cc(=O)c2c(O)c1OC
